According to patent publication US8900593B2 (Indiana University Research and Technology Corporation, priority 2007, dated 2014):
Read-outs that look alike come from different tables or passages of the source. Each block holds one compound with its values, some of them ahead of it. Where a SMILES comes first, the peptide text is derived from it. Bridges are numbered along the chain shown (N, C = ends). Where no end group is shown, it is not given here. PEG = not defined here

Tests used:
GLP-1 receptor = target: T1, GLP-1 receptor (Homo sapiens, UniProt P43220); test: Functional assay-cAMP synthesis, luciferase reporter in HEK293 cells co-transfected with GLP-1 receptor; assay type: cell-based; conditions: for GLP 1 Receptor Relative Potency (%): Table 11, relative to GLP-1-VKGG30 (SEQ ID NO: 527) = 100; for Percent Potency Relative to Native Ligand GLP-1Rec: relative to native GLP-1
T1 construct: expressed in transfected cells; host or cells: HEK293
T1 sequence (P43220 24-463, species assumed): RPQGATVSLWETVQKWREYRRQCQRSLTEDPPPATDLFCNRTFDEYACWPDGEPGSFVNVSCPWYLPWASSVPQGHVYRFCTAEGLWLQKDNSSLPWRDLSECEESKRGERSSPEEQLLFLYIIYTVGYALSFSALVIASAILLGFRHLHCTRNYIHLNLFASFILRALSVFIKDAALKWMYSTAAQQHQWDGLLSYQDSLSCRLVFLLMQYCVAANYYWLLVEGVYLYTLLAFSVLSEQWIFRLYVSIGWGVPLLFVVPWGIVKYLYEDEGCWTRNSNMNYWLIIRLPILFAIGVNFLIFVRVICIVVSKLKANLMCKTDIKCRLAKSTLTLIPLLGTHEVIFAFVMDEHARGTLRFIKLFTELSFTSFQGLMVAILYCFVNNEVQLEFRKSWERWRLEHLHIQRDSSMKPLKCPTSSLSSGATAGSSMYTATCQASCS

glucagon receptor = target: T2, glucagon receptor (Homo sapiens, UniProt P47871); test: Functional assay-cAMP synthesis, luciferase reporter in HEK293 cells co-transfected with glucagon receptor; assay type: cell-based; conditions: for Percent Potency Relative to Native Ligand GRec: relative to native glucagon
T2 construct: expressed in transfected cells; host or cells: HEK293
T2 sequence (P47871 26-477): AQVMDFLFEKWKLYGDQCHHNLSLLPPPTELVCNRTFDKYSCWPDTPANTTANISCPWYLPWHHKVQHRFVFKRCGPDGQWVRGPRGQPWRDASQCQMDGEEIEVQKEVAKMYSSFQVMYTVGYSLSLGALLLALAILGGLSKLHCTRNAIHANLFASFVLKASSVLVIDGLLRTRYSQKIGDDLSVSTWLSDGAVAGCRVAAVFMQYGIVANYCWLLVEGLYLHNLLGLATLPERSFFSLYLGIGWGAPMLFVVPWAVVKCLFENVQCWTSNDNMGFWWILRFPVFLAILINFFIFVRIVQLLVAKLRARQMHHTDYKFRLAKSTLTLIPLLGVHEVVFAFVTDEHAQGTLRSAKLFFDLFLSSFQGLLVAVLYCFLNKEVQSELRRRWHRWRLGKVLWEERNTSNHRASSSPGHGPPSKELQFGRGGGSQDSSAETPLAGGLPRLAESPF

[1] = Glucagon Receptor EC50(nM), Table 10, GLP-1 17-26 glucagon analogs
[2] = read-out: cAMP Induction Glucagon Receptor EC50, Table 3, pegylated glucagon analogs

Compound: CSCC[C@H](NC(=O)[C@H](CC(C)C)NC(=O)[C@H](Cc1c[nH]c2ccccc12)NC(=O)[C@H](CCC(N)=O)NC(=O)[C@@H](NC(=O)[C@H](Cc1ccccc1)NC(=O)[C@H](CC(=O)O)NC(=O)[C@H](CCCCN)NC(=O)[C@H](C)NC(=O)[C@H](CCCNC(=N)N)NC(=O)[C@H](CCCNC(=N)N)NC(=O)[C@H](CCC(=O)O)NC(=O)[C@H](CC(=O)O)NC(=O)[C@H](CC(C)C)NC(=O)[C@H](Cc1ccc(O)cc1)NC(=O)[C@H](CCCCN)NC(=O)[C@H](CO)NC(=O)[C@H](Cc1ccc(O)cc1)NC(=O)[C@H](CC(=O)O)NC(=O)[C@H](CO)NC(=O)[C@@H](NC(=O)[C@H](Cc1ccccc1)NC(=O)[C@@H](NC(=O)CNC(=O)[C@H](CCC(N)=O)NC(=O)[C@H](CO)NC(=O)[C@@H](N)Cc1c[nH]cn1)[C@@H](C)O)[C@@H](C)O)C(C)C)C(=O)N[C@@H](CC(=O)O)C(=O)NCC(=O)NCC(=O)N1CCC[C@H]1C(=O)N[C@@H](CO)C(=O)N[C@@H](CO)C(=O)NCC(=O)N[C@@H](C)C(=O)N1CCC[C@H]1C(=O)N1CCC[C@H]1C(=O)N1CCC[C@H]1C(=O)N[C@@H](CO)C(N)=O
EC50 (GLP-1 receptor): 0.02 nM

Compound: CSCC[C@H](NC(=O)[C@H](CC(C)C)NC(=O)[C@H](Cc1c[nH]c2ccccc12)NC(=O)[C@H](CCC(N)=O)NC(=O)[C@@H](NC(=O)[C@H](Cc1ccccc1)NC(=O)[C@H](CC(=O)O)NC(=O)[C@H](CCC(N)=O)NC(=O)[C@H](C)NC(=O)[C@H](CCCNC(=N)N)NC(=O)[C@H](CCCNC(=N)N)NC(=O)[C@H](CO)NC(=O)[C@H](CC(=O)O)NC(=O)[C@H](CC(C)C)NC(=O)[C@H](Cc1ccc(O)cc1)NC(=O)[C@H](CCCCN)NC(=O)[C@H](CO)NC(=O)[C@H](Cc1ccc(O)cc1)NC(=O)[C@H](CC(=O)O)NC(=O)[C@H](CO)NC(=O)[C@@H](NC(=O)[C@H](Cc1ccccc1)NC(=O)[C@@H](NC(=O)CNC(=O)[C@H](CCC(N)=O)NC(=O)[C@H](CO)NC(=O)[C@@H](N)Cc1c[nH]cn1)[C@@H](C)O)[C@@H](C)O)C(C)C)C(=O)N[C@@H](CC(=O)O)C(=O)NCC(=O)NCC(=O)N1CCC[C@H]1C(=O)N[C@@H](CO)C(=O)N[C@@H](CO)C(=O)NCC(=O)N[C@@H](C)C(=O)N1CCC[C@H]1C(=O)N1CCC[C@H]1C(=O)N1CCC[C@H]1C(=O)N[C@@H](CO)C(N)=O [-MDGG^30 PSSGAPPPS (SEQ ID NO: 525)]
EC50 (GLP-1 receptor): 0.13 nM

Compound: CSCC[C@H](NC(=O)[C@H](CC(C)C)NC(=O)[C@H](Cc1c[nH]c2ccccc12)NC(=O)[C@H](CCC(N)=O)NC(=O)[C@@H](NC(=O)[C@H](Cc1ccccc1)NC(=O)[C@H](CC(=O)O)NC(=O)[C@H](CCC(N)=O)NC(=O)[C@H](C)NC(=O)[C@H](CCCNC(=N)N)NC(=O)[C@H](CCCNC(=N)N)NC(=O)[C@H](CO)NC(=O)[C@H](CC(=O)O)NC(=O)[C@H](CC(C)C)NC(=O)[C@H](Cc1ccc(O)cc1)NC(=O)[C@H](CCCCN)NC(=O)[C@H](CO)NC(=O)[C@H](Cc1ccc(O)cc1)NC(=O)[C@H](CC(=O)O)NC(=O)[C@H](CO)NC(=O)[C@@H](NC(=O)[C@H](Cc1ccccc1)NC(=O)[C@@H](NC(=O)CNC(=O)[C@H](CCC(N)=O)NC(=O)[C@H](CO)NC(=O)[C@@H](N)Cc1c[nH]cn1)[C@@H](C)O)[C@@H](C)O)C(C)C)C(=O)N[C@@H](CCCCN)C(=O)NCC(=O)NCC(=O)N1CCC[C@H]1C(=O)N[C@@H](CO)C(=O)N[C@@H](CO)C(=O)NCC(=O)N[C@@H](C)C(=O)N1CCC[C@H]1C(=O)N1CCC[C@H]1C(=O)N1CCC[C@H]1C(=O)N[C@@H](CO)C(N)=O [-MKGG^30 PSSGAPPPS (SEQ ID NO: 523)]
EC50 (GLP-1 receptor): 0.8 nM
GLP 1 Receptor Relative Potency (%) (GLP-1 receptor): 3%
EC50 (glucagon receptor): 0.61 nM
Glucagon Receptor Relative Potency (%) (glucagon receptor; Table 11, relative to glucagon (SEQ ID NO: 1) = 100): 14%

Compound: CSCC[C@H](NC(=O)[C@H](CC(C)C)NC(=O)[C@H](Cc1c[nH]c2ccccc12)NC(=O)[C@H](CCC(N)=O)NC(=O)[C@@H](NC(=O)[C@H](Cc1ccccc1)NC(=O)[C@H](CC(=O)O)NC(=O)[C@H](CCC(N)=O)NC(=O)[C@H](C)NC(=O)[C@H](CCCNC(=N)N)NC(=O)[C@H](CCCNC(=N)N)NC(=O)[C@H](CO)NC(=O)[C@H](CC(=O)O)NC(=O)[C@H](CC(C)C)NC(=O)[C@H](Cc1ccc(O)cc1)NC(=O)[C@H](CCCCN)NC(=O)[C@H](CO)NC(=O)[C@H](Cc1ccc(O)cc1)NC(=O)[C@H](CC(=O)O)NC(=O)[C@H](CO)NC(=O)[C@@H](NC(=O)[C@H](Cc1ccccc1)NC(=O)[C@@H](NC(=O)CNC(=O)[C@H](CCC(N)=O)NC(=O)[C@H](CO)NC(=O)[C@@H](N)Cc1c[nH]cn1)[C@@H](C)O)[C@@H](C)O)C(C)C)C(=O)N[C@@H](CC(N)=O)C(=O)NCC(=O)NCC(=O)N1CCC[C@H]1C(=O)N[C@@H](CO)C(=O)N[C@@H](CO)C(=O)NCC(=O)N[C@@H](C)C(=O)N1CCC[C@H]1C(=O)N1CCC[C@H]1C(=O)N1CCC[C@H]1C(=O)N[C@@H](CO)C(N)=O [-MNGG^30 PSSGAPPPS (SEQ ID NO: 522)]
EC50 (GLP-1 receptor): 0.31 nM
GLP 1 Receptor Relative Potency (%) (GLP-1 receptor): 8%

EC50 (GLP-1 receptor): 0.007 nM
EC50 (glucagon receptor; [1]): 0.16 nM
Compound: CC[C@H](C)[C@H](NC(=O)[C@H](Cc1ccccc1)NC(=O)[C@H](CCC(=O)O)NC(=O)[C@H](CCCCN)NC(=O)[C@H](C)NC(=O)[C@H](C)NC(=O)[C@H](CCC(N)=O)NC(=O)[C@H](CCC(=O)O)NC(=O)[C@H](CC(=O)O)NC(=O)[C@H](CC(C)C)NC(=O)[C@H](Cc1ccc(O)cc1)NC(=O)[C@H](CCCCN)NC(=O)[C@H](CO)NC(=O)[C@H](Cc1ccc(O)cc1)NC(=O)[C@H](CC(=O)O)NC(=O)[C@H](CO)NC(=O)[C@@H](NC(=O)[C@H](Cc1ccccc1)NC(=O)[C@@H](NC(=O)CNC(=O)[C@H](CCC(N)=O)NC(=O)[C@H](CO)NC(=O)[C@@H](N)Cc1c[nH]cn1)[C@@H](C)O)[C@@H](C)O)C(=O)N[C@H]1CCC(=O)NCCCC[C@@H](C(=O)NCC(N)=O)NC(=O)[C@H](C(C)C)NC(=O)[C@H](CC(C)C)NC(=O)[C@H](Cc2c[nH]c3ccccc23)NC1=O [E16 GLP(17-29)-NH2 E24, K28 Lactam] (H-HSQGTFTSDYSKYLDEQAAKEFIEWLVKG-NH2; lactam 24-28; N-terminus assumed)

GLP 1 Receptor Relative Potency (%) (GLP-1 receptor): 100%
EC50 (GLP-1 receptor; read-out: GLP 1 Receptor EC50): 0.025 nM
Compound: CC[C@H](C)[C@H](NC(=O)[C@H](Cc1ccccc1)NC(=O)[C@H](CCC(=O)O)NC(=O)[C@H](CCCCN)NC(=O)[C@H](C)NC(=O)[C@H](C)NC(=O)[C@H](CCC(N)=O)NC(=O)CNC(=O)[C@H](CCC(=O)O)NC(=O)[C@H](CC(C)C)NC(=O)[C@H](Cc1ccc(O)cc1)NC(=O)[C@H](CO)NC(=O)[C@H](CO)NC(=O)[C@@H](NC(=O)[C@H](CC(=O)O)NC(=O)[C@H](CO)NC(=O)[C@@H](NC(=O)[C@H](Cc1ccccc1)NC(=O)[C@@H](NC(=O)CNC(=O)[C@H](CCC(=O)O)NC(=O)[C@H](C)NC(=O)[C@@H](N)Cc1c[nH]cn1)[C@@H](C)O)[C@@H](C)O)C(C)C)C(=O)N[C@@H](C)C(=O)N[C@@H](Cc1c[nH]c2ccccc12)C(=O)N[C@@H](CC(C)C)C(=O)N[C@H](C(=O)N[C@@H](CCCCN)C(=O)NCC(=O)NCC(N)=O)C(C)C [GLP-1-VKGG^30 (SEQ ID NO: 527), HAEGTFTSDVSSYLEGQAAKEFIAW LVKGGa, reference compound]

EC50 (glucagon receptor; [2]): 0.82 ± 0.15 nM
Compound: Glucagon Cys^17 Mal-PEG-5K [Glucagon C17 PEG 5K]

EC50 (glucagon receptor; [2]): 0.1 ± 0.05 nM
Compound: Glucagon Cys^24 maleimido,PEG-3.4K-dimer [Glucagon C24 Dimer]

EC50 (glucagon receptor; [2]): 0.96 ± 0.07 nM
Compound: Glucagon Cys^29 Mal-PEG-5K [Glucagon C29 PEG 5K]

Percent Potency Relative to Native Ligand GLP-1Rec (GLP-1 receptor; Table 4): 28.8%
Percent Potency Relative to Native Ligand GRec (glucagon receptor; Table 4): 1.6%
Compound: HSEGTFTSDYSKYLDERRAQDFVQW LMNTa (HSEGTFTSDYSKYLDERRAQDFVQWLMNT-NH2) [E3, E16 Gluc-NH2]

Percent Potency Relative to Native Ligand GLP-1Rec (GLP-1 receptor; Table 5): 41.5%
Percent Potency Relative to Native Ligand GLP-1Rec (GLP-1 receptor; Table 9, E16/lactam analogs): 41.5%
Percent Potency Relative to Native Ligand GRec (glucagon receptor; Table 5): 130.1%
Percent Potency Relative to Native Ligand GRec (glucagon receptor; Table 9, E16/lactam analogs): 130.1%
Compound: HSQGTFTSDYSKYLDERRAKDFVQW LMNTa [E16, K20 Gluc-NH2] (HSQGTFTSDYSKYLDERRAKDFVQWLMNT-NH2)

Percent Potency Relative to Native Ligand GLP-1Rec (GLP-1 receptor; Table 9, E16/lactam analogs): 63.0%
Percent Potency Relative to Native Ligand GRec (glucagon receptor; Table 9, E16/lactam analogs): 180.8%
Compound: HSQGTFTSDYSKYLDERRAKDFVQW LMNTa [E16K20 Gluc-NH2 Lac] (HSQGTFTSDYSKYLDERRAKDFVQWLMNT-NH2; lactam 16-20; N-terminus assumed; SMILES CSCC[C@H](NC(=O)[C@H](CC(C)C)NC(=O)[C@H](Cc1c[nH]c2ccccc12)NC(=O)[C@H](CCC(N)=O)NC(=O)[C@@H](NC(=O)[C@H](Cc1ccccc1)NC(=O)[C@H](CC(=O)O)NC(=O)[C@@H]1CCCCNC(=O)CC[C@H](NC(=O)[C@H](CC(=O)O)NC(=O)[C@H](CC(C)C)NC(=O)[C@H](Cc2ccc(O)cc2)NC(=O)[C@H](CCCCN)NC(=O)[C@H](CO)NC(=O)[C@H](Cc2ccc(O)cc2)NC(=O)[C@H](CC(=O)O)NC(=O)[C@H](CO)NC(=O)[C@@H](NC(=O)[C@H](Cc2ccccc2)NC(=O)[C@@H](NC(=O)CNC(=O)[C@H](CCC(N)=O)NC(=O)[C@H](CO)NC(=O)[C@@H](N)Cc2c[nH]cn2)[C@@H](C)O)[C@@H](C)O)C(=O)N[C@@H](CCCNC(=N)N)C(=O)N[C@@H](CCCNC(=N)N)C(=O)N[C@@H](C)C(=O)N1)C(C)C)C(=O)N[C@@H](CC(N)=O)C(=O)N[C@H](C(N)=O)[C@@H](C)O)

Parent w/PEG % Potency Relative to Native GLP-1R (GLP-1 receptor; Table 12, pegylated peptide): 29.3%
Parent w/PEG % Potency Relative to Native GR (glucagon receptor; Table 12, pegylated peptide): 19.8%
Compound: HSQGT FTSDYSKYLD EQAAK EFIC*W LMNTa (HSQGTFTSDYSKYLDEQAAKEFIC(PEG)WLMNT-NH2; reading uncertain) [Chimera Cys24 (SEQ ID NO: 518), C* is Cys attached to PEG in the tested form]

EC50 (glucagon receptor; [1]): 0.076 nM
Compound: HSQGTFTSDYSKYLDEQAAKEFIAWLMNT-NH2 [E16 GLP(17-26)Glu(27-29)-NH2, HSQGTFTSDYSKYLDEQAAKEFIAW LMNTa]

Compound: Oxyntomodulin C24 PEG 20K: oxyntomodulin Cys24 pegylated with 20K PEG
EC50 (glucagon receptor; read-out: cAMP Induction Glucagon Receptor EC50, Table 2, analogs with C-terminus extension): 0.97 ± 0.04 nM

selectivity for the GLP-1 receptor (GLP-1 receptor; versus glucagon receptor): approximately a tenfold selectivity
Compound: SEQ ID NO: 22: glucagon analog substituting the native glutamine at position 3 with glutamic acid
